Source: patent US20230146395A1, “Substituted Pyrimidines and Uses Thereof” (Verge Analytics, Inc., priority 2020, published 2023)
Counter-ions that a name gives are not always drawn.

Biological target: T1, Full length human recombinant PIKFYVE (Homo sapiens, UniProt Q9Y2I7)
T1 construct: Full length human recombinant PIKFYVE; purchased Carna Biosciences (Kobe, Japan); host or cells: baculovirus expression system
Assay: Inhibition of PIKfyve (microfluidic electrophoresis kinase assay, PI3P/PS substrate)
Format: biochemical
Conditions: 12 concentrations
Method: Full length human recombinant PIKFYVE expressed in baculovirus expression system as N-terminal GST-fusion protein (265 kDa) was obtained from Carna Biosciences (Kobe, Japan). The kinase substrate was prepared by mixing and sonicating fluorescently-labeled phosphatidylinositol 3-phosphate (PI3P) with phospho-L-serine (PS) at a 1:10 ratio in 50 mM HEPES buffer pH 7.5.
The kinase reactions were assembled in 384-well plates (Greiner) in a total volume of […] as follows. Kinase protein was pre-diluted in an assay buffer comprising 25 mM HEPES, pH 7.5, 1 mM DTT, 2.5 mM MgCl2, and 2.5 mM MnCl2, and 0.005% Triton X-100, and dispensed into a 384-well plate (10 μL per well). Test compounds were serially pre-diluted in DMSO and added to the protein samples by acoustic dispensing (Labcyte Echo). The concentration of DMSO was equalized to 1% in all samples. All test compounds were tested at 12 concentrations. Apilimod was used as a reference compound and was tested in identical manner in each assay plate. Control samples (0%-inhibition, in the absence of inhibitor, DMSO only) and 100%-inhibition (in the absence of enzyme) were assembled in replicates of four and were used to calculate %-inhibition in the presence of compounds. The reactions were initiated by addition of 10 μL of 2×PI3P/PS substrate supplemented with ATP. The final concentration of enzyme was 2 nM, the final concentration of ATP was […], and the final concentration of PI3P/PS substrate was 1 μM (PI3P). The kinase reactions were allowed to proceed for 3 h at room temperature. Following incubation, the reactions were quenched by addition of […] of termination buffer (100 mM HEPES, pH 7.5, 0.01% Triton X-100, 20 mM EDTA). Terminated plates were analyzed on a microfluidic electrophoresis instrument (Caliper LabChip® 3000, Caliper Life Sciences/Perkin Elmer). The change in the relative fluorescence intensity of the PI(3)P substrate and PI(3,5)P product peaks was measured. The activity in each test sample was determined as the product to sum ratio (PSR): P/(S+P), where P is the peak height of the product, and S is the peak height of the substrate. Percent inhibition (Pinh) was determined using the following equation:
Pinh=(PSR0% inh−PSRcompound)/(PSR0% inh−PSR100% inh)*100
in which PSRcompound is the product/sum ratio in the presence of compound, PSR0% inh is the product/sum ratio in the absence of compound, and the PSR100% inh is the product/sum ratio in the absence of the enzyme.

T1 sequence (Q9Y2I7 whole entry): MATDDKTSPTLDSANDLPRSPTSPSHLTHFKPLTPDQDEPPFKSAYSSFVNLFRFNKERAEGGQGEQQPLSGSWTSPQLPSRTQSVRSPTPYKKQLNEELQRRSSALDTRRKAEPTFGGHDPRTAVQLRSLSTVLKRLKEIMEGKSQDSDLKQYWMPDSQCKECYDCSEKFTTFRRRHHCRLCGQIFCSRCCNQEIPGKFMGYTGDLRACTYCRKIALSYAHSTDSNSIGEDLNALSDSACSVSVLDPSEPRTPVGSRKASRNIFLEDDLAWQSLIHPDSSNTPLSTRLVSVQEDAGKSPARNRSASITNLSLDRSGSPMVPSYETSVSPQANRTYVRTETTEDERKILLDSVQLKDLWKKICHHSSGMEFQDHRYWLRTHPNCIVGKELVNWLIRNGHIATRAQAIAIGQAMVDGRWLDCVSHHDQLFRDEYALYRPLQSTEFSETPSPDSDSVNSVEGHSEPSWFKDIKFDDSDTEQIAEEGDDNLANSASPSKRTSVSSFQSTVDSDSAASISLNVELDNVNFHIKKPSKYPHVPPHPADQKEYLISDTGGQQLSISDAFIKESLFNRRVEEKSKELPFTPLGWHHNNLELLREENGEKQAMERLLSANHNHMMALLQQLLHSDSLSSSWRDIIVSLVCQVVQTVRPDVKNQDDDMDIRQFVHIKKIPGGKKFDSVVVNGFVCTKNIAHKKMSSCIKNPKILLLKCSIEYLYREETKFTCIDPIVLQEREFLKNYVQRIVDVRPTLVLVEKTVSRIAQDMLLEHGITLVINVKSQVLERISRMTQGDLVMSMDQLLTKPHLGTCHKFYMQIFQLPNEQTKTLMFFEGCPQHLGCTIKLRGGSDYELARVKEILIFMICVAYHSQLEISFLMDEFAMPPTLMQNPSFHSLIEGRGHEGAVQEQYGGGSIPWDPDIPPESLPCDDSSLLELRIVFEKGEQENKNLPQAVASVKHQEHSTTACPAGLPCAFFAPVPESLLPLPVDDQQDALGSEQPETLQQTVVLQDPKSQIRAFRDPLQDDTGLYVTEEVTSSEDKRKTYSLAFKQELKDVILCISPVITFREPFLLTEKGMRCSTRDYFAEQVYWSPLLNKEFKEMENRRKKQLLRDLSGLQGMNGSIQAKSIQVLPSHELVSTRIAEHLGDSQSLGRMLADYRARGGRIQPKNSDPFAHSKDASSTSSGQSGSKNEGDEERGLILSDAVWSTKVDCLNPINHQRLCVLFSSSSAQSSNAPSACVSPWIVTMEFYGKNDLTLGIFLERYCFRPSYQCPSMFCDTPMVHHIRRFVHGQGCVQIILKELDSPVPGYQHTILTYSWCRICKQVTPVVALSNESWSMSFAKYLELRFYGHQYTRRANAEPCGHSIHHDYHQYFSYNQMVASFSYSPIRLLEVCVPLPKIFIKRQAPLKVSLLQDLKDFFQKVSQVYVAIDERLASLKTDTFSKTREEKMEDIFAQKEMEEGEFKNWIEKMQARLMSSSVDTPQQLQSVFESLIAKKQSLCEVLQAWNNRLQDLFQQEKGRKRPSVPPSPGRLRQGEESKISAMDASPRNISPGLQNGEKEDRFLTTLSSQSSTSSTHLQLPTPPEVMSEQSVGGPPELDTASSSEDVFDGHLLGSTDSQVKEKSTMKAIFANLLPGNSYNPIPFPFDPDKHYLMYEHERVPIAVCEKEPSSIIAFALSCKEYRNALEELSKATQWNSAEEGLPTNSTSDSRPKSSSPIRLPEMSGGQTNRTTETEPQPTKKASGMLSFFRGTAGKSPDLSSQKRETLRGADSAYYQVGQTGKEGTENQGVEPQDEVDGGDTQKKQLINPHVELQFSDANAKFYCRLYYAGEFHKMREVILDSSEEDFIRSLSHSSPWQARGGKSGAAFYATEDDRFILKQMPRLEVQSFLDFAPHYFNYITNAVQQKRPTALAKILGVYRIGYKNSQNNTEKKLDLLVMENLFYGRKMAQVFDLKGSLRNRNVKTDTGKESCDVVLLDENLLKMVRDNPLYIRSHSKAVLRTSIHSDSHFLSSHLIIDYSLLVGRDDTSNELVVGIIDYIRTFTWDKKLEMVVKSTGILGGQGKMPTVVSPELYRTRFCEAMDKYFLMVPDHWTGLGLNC

Structure (SMILES)	IC50
[2H]C([2H])([2H])c1cccc(-c2ccn(-c3nc(N4CCOCC4)c4oc(-c5ccccn5)cc4n3)n2)c1 [Compound 217, 4-morpholino-6-(2-pyridyl)-2-[3-[3-(trideuteriomethyl)phenyl]pyrazol-1-yl]furo[3,2-d]pyrimidine]	2.2 nM
c1ccc(-c2ccn(-c3nc(N4CCOCC4)c4oc(-c5ccccn5)cc4n3)n2)cc1 [Compound 155, 4-morpholino-2-(3-phenylpyrazol-1-yl)-6-(2-pyridyl)furo[3,2-d]pyrimidine]	70.6 nM
Cn1ccc(-c2cc3nc(-n4ccc(Br)n4)nc(N4CCOCC4)c3o2)n1 [Compound 195, 2-(3-bromopyrazol-1-yl)-6-(1-methylpyrazol-3-yl)-4-morpholino-furo[3,2-d]pyrimidine]	907 nM
CN1CCN(C(=O)c2cc3nc(Nc4cc(-c5ccccc5)[nH]n4)nc(N4CCOCC4)c3o2)CC1 [Compound 136, (4-methylpiperazin-1-yl)(4-morpholino-2-((5-phenyl-1H-pyrazol-3-yl)amino)furo[3,2-d]pyrimidin-6-yl)methanone]	94 nM
Cc1cccc(-c2ccn(-c3nc(N4CCOCC4=O)c4oc(-c5ccccn5)cc4n3)n2)c1 [Compound 148]	3860 nM
O=C(NC1CC1)c1cc2nc(-n3cc(-c4ccccc4)cn3)nc(N3CCOCC3)c2o1 [Compound 165, N-cyclopropyl-4-morpholino-2-(4-phenylpyrazol-1-yl)furo[3,2-d]pyrimidine-6-carboxamide]	68.4 nM
CN1CCCC(NC(=O)c2cc3nc(-n4cc(-c5ccccc5)cn4)nc(N4CCOCC4)c3o2)CC1 (stereo not drawn) [Compound 176, N-(1-methylazepan-4-yl)-4-morpholino-2-(4-phenylpyrazol-1-yl)furo[3,2-d]pyrimidine-6-carboxamide]	47.3 nM
Cc1cccc(-c2cnn(-c3nc(N4CCOCC4)c4oc(C(=O)NC5CC5)c(C(F)(F)F)c4n3)c2)c1 [Compound 147, N-cyclopropyl-4-morpholino-2-(4-(m-tolyl)-1H-pyrazol-1-yl)-7-(trifluoromethyl)furo[3,2-d]pyrimidine-6-carboxamide]	1030 nM
Cn1ccc(-c2cc3nc(-n4ccc(-c5ccccc5)n4)nc(N4CCOCC4)c3o2)n1 [Compound 191, 6-(1-methylpyrazol-3-yl)-4-morpholino-2-(3-phenylpyrazol-1-yl)furo[3,2-d]pyrimidine]	51.9 nM
Cc1cc(-c2oc3c(N4CCOCC4)nc(-n4ccc(-c5ccccc5)n4)nc3c2C)[nH]n1 [Compound 182, 7-methyl-6-(3-methyl-1H-pyrazol-5-yl)-4-morpholino-2-(3-phenylpyrazol-1-yl)furo[3,2-d]pyrimidine]	84.2 nM

More lines, now with the values ahead:

IC50	Structure (SMILES)
160 nM	c1ccc(-c2ccn(-c3nc(N4CCOCC4)c4oc(-c5ccncc5)cc4n3)n2)cc1 [Compound 158, 4-morpholino-2-(3-phenylpyrazol-1-yl)-6-(4-pyridyl)furo[3,2-d]pyrimidine]
303 nM	COCCN(C)Cc1cc2nc(Nc3cc(-c4ccccc4)n[nH]3)nc(N3CCOCC3)c2o1 [Compound 17]
235 nM	CS(=O)(=O)NC(=O)c1cc2nc(Nc3cc(-c4ccccc4)n[nH]3)nc(N3CCOCC3)c2o1 [Compound 65, N-(methylsulfonyl)-4-morpholino-2-((3-phenyl-1H-pyrazol-5-yl)amino)furo[3,2-d]pyrimidine-6-carboxamide hydrochloride]
552 nM	FC(F)(F)c1cc(Nc2nc(N3CCOCC3)c3oc(-c4ccncc4)cc3n2)[nH]n1 [Compound 72, 4-morpholino-6-(pyridin-4-yl)-N-(5-(trifluoromethyl)-1H-pyrazol-3-yl)furo[3,2-d]pyrimidin-2-amine, hydrogen chloride]
64 nM	c1ccc(-c2cc(Nc3nc(N4CCOCC4)c4oc(-c5ccncc5)cc4n3)[nH]n2)nc1 [Compound 19, 4-morpholino-6-(4-pyridyl)-N-[5-(2-pyridyl)-1H-pyrazol-3-yl]furo[3,2-d]pyrimidin-2-amine, hydrogen chloride]
